Laboratory results as given in PubChem BioAssay (NCI).
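Following 48 hours of exposure in 96-well plates, responses at five concentrations were used to interpolate endpoints linearly. GI50 marks 50% less growth. The concentration for full growth arrest is given as TGI.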

Tests used:
Test in all cases: NCI-60 cell line screen, 48 h
SF-539 CNS = system: SF-539 CNS
SF-295 CNS = system: SF-295 CNS
SK-MEL-2 melanoma = system: SK-MEL-2 melanoma
PC-3 prostate = system: PC-3 prostate
KM12 colon = system: KM12 colon
U251 CNS = system: U251 CNS
T-47D breast = system: T-47D breast
OVCAR-4 ovarian = system: OVCAR-4 ovarian
LOX IMVI melanoma = system: LOX IMVI melanoma
SNB-75 CNS = system: SNB-75 CNS

SMILES | GI50 (SF-539 CNS) [µM] | TGI (SF-539 CNS) [µM] | GI50 (SF-295 CNS) [µM] | TGI (SF-295 CNS) [µM] | GI50 (SK-MEL-2 melanoma) [µM] | TGI (SK-MEL-2 melanoma) [µM] | GI50 (PC-3 prostate) [µM] | TGI (PC-3 prostate) [µM] | GI50 (KM12 colon) [µM] | TGI (KM12 colon) [µM] | GI50 (U251 CNS) [µM] | TGI (U251 CNS) [µM] | GI50 (T-47D breast) [µM] | TGI (T-47D breast) [µM] | GI50 (OVCAR-4 ovarian) [µM] | TGI (OVCAR-4 ovarian) [µM] | GI50 (LOX IMVI melanoma) [µM] | TGI (LOX IMVI melanoma) [µM] | GI50 (SNB-75 CNS) [µM] | TGI (SNB-75 CNS) [µM]
O=C(Nc1cccc(-n2cc(-c3ccncc3)c(-c3ccc(O)c(Cl)c3)n2)c1)c1ccc2c(c1)OCCO2 | 6.63 | > 100 | 4.88 | > 100 | > 100 | > 100 | 7.3 | > 100 | 4.83 | > 100 | 4.02 | > 100 | 3.44 | > 100 | > 100 | > 100 | 4.77 | > 100 | 4 | > 100
Cc1cc(C(=O)Nc2n[nH]c3ccccc23)n[nH]1 | > 100 | > 100 | > 100 | > 100 | > 100 | > 100 | > 100 | > 100 | 28.9 | > 100 | > 100 | > 100 | > 100 | > 100 | > 100 | > 100 | > 100 | > 100 | 62.6 | > 100
COc1cccc(-c2nn(-c3ccccc3)cc2-c2ccnc(NCCCNC(=O)c3cccc(C(F)(F)F)c3)c2)c1 | 2.92 | 8.29 | 3.32 | 13.9 | 7.23 | 23.6 | 3.18 | 24 | 3.64 | 19.8 | 4.37 | 17.5 | 2.33 | 8.4 | 4.22 | 32.2 | 4.55 | 18.3 | 17 | 57.8
N#Cc1cnc2cc(OC[C@@H](O)CO)c(NC(=O)C3CCCC3)cc2c1Nc1ccc(OCc2cccc(F)c2)c(Cl)c1 | 1.15 | 2.93 | 3.78 | 12.2 | 0.915 | 1.86 | 0.947 | 1.92 | 3.84 | 14.2 | 6.79 | 15.6 | 1.13 | 4.31 | 0.514 | 1.28 | 1.01 | 2.28 | 2.19 | > 50
O=C(O)c1cc2ccccc2c2c3c(ccc12)OCO3 | 132 | 337 | 157 | 618 | 166 | 333 | 166 | 559 | 219 | 702 | 134 | 478 | 209 | 750 | 170 | 808 | 223 | 766 | 77.8 | 265
O=[N+]([O-])c1cccc(-c2nc(-c3ccc(Cl)cc3Cl)cn2-c2ccccc2)c1 | 1.02 | 4.33 | 0.452 | 0.976 | 1.9 | > 11.8 | 0.391 | 10.8 | 0.573 | 1.22 | 0.614 | 1.26 | 0.922 | 2.9 | 0.58 | 1.12 | 2.98 | > 30.7 | 0.509 | 1.34
COc1cc(Cl)cc(-c2nn(-c3cccc(NC(=O)Nc4cccc(C(F)(F)F)c4)c3)cc2-c2ccncc2)c1 | 1.9 | 4.82 | 0.783 | 4.62 | 1.29 | 3.08 | 0.417 | 3.2 | 0.611 | 4.79 | 0.879 | 2.91 | 1.23 | 6.99 | 2.54 | 38.8 | 1.81 | 7.04 | 1.78 | 13.9
CNCC/C=C1\c2cc3c(cc2-c2c1c1cc(OC)c(OC)cc1c(=O)n2C)OCO3 | 0.4 | 5.85 | 0.0811 | 15.6 | 9.68 | > 100 | 0.534 | 10.3 | < 0.0507 | 0.504 | 0.309 | 19.1 | 4.19 | 25.5 | 6.72 | 44.8 | 0.51 | 2.57 | 3.26 | 33.8
COc1cc(-n2cc(-c3ccccc3)[nH]c2=O)cc(OC)c1OC | 21.5 | 63.8 | 37.8 | > 100 | > 100 | > 100 | 40 | > 100 | > 100 | > 100 | 41.3 | > 100 | 30.5 | > 100 | 17.1 | 52.8 | > 100 | > 100 | 13.9 | 34
C=C1C(=O)OC2C1C(OC(=O)/C(C)=C/C)CC(O)(CCl)C1C(O)C=C(C)C21O (stereo not given) | – | 65.5 | – | > 100 | – | > 50.3 | – | > 51.3 | – | 49.8 | – | 65.1 | – | 42.2 | – | 30 | – | 17.8 | – | > 59
O=C1/C=C/[C@@H](O)[C@@H]2C[C@@H](O)C[C@H]2/C=C/CCC[C@H](CCc2ccc3ncccc3c2)O1 | 0.495 | > 100 | 0.351 | > 100 | 0.266 | 0.654 | 0.313 | > 36 | 0.175 | – | 0.347 | > 100 | 0.312 | 8.1 | 0.253 | – | 0.152 | 0.333 | 0.101 | > 29.8
O=C1Nc2cc(-c3cccc(O)c3)ccc2/C1=C/c1ccc[nH]1 | 1.12 | 2.49 | 2.34 | 5.23 | 1.48 | 6.77 | 2.53 | 10.7 | 0.225 | 2.52 | 2.38 | 12.1 | 0.17 | 0.472 | 0.305 | 16.2 | 1.31 | 3.11 | 1.31 | 4.53
CCCCCCCCCCCCCCCCCCNCc1ccc(Cl)cc1 | 12.1 | 29.4 | 12.6 | 28.8 | 8.65 | 25.9 | 1.94 | 3.96 | 2.5 | 6.54 | 1.96 | 3.85 | 4.28 | 24.9 | 1.99 | 4.76 | 2.04 | 4.92 | 9.15 | 27.3
Nc1ccccc1C#C/C=C\C#CC#C/C=C\C#Cc1ccccc1N | 3.96 | 16.6 | 5.23 | 30.2 | 14.2 | 65.3 | 2.59 | 16.5 | 3.64 | > 100 | 5.61 | 22.2 | 6.47 | > 100 | 14.6 | 92.8 | 1.75 | 11.6 | 3.27 | 22
C[N+](C)(C)CC1CCC(C[N+](C)(C)C)C1=O (stereo not given) | – | 15.5 | – | 35.9 | – | 36.9 | – | 31.3 | – | 16.3 | – | 17.1 | – | 8.28 | – | 10.8 | – | 10.3 | – | 3.51
C/C=C/C/C=C/[C@H](C)C[C@H](O)[C@@H]1C[C@@H]2O[C@H]2/C=C/[C@@H]2OC(C)(C)O[C@H]2/C=C/C[C@H](C)CC(=O)O1 | 26.3 | > 100 | 6.06 | 60.8 | 39.3 | > 100 | 5.75 | > 100 | 7.85 | > 100 | 13.5 | > 100 | 2.18 | 8.53 | 9.9 | > 100 | 7.62 | > 100 | 24.6 | > 100
O=C(NCCc1ccccc1)Nc1ccc2cc3ccc(NC(=O)NCCc4ccccc4)cc3nc2c1 | 1.33 | 2.7 | 1.94 | 4.79 | 1.39 | 3 | 1.63 | 3.59 | 1.64 | 4.42 | 0.746 | 2.16 | 0.983 | 2.31 | 1.48 | 3.48 | 0.202 | 0.445 | 1.36 | 3.21
CN(C)C(=O)OCc1nc2c(N3CCOCC3)nc(-c3ccccc3)nc2n1C | 1.4 | 2.72 | 1.65 | 3.08 | 1.77 | 3.43 | 0.507 | 1.31 | 1.54 | 3.32 | 1.47 | 2.98 | 1.85 | 4.62 | 0.79 | 2.16 | 0.183 | 0.402 | 1.1 | 2.37
CC[C@@]1(OC(=O)C(N)CCCCN)C(=O)OCc2c1cc1n(c2=O)Cc2cc3ccccc3nc2-1 (stereo not given in full) | – | 0.149 | – | 0.813 | – | 1.39 | – | > 100 | – | 5.26 | – | > 11.6 | – | 0.935 | – | 2.84 | – | 0.18 | – | 0.609
Cc1ccc(Nc2cc(Cl)c([N+](=O)[O-])cc2[N+](=O)[O-])cc1 | 4 | 15.3 | 14.4 | 34 | 3.31 | 8.94 | 3.59 | 14.2 | 3.24 | 8.8 | 3.36 | 12.4 | 3.28 | 9.51 | 4.52 | 16.2 | 1.15 | 5.62 | 3.91 | 17.5
CNC(=O)c1cc(Oc2cccc3nc(NC(=O)Nc4cc(C(F)(F)F)cc(C(F)(F)F)c4)ccc23)ccn1 | 6.68 | 37.9 | 3.69 | 15.2 | 12.7 | 25.6 | 6.06 | 38.2 | 15.2 | > 100 | 2.47 | 6.27 | 4.13 | 31.1 | 2.37 | 7.51 | 3.26 | 29.5 | 2.38 | 14.9
c1ccc(CN2CCc3[nH]c4ccccc4c3C2)cc1 | – | 56.2 | – | 65.9 | – | 41.1 | – | > 100 | – | 45.9 | – | 53.8 | – | 47.2 | – | 84.4 | – | 40.7 | – | > 100
CCC1C(C)C=NN1c1nc(N)nc(C(C#N)=Nc2ccc(N(C)C)cc2)n1 (stereo not given) | 1.03 | 5.97 | 8.96 | 16.1 | 32.2 | > 50 | 2.53 | 10.1 | 9.85 | 18.6 | 8.93 | 16.8 | 23.5 | > 50 | 16.3 | > 50 | 8.53 | 15.7 | 8.95 | 22.6
O=C(O)C1CC=CCC1C(=O)Nc1cccc(O)c1 (stereo not given) | – | > 100 | – | > 100 | – | > 100 | – | > 100 | – | > 100 | – | > 100 | – | > 100 | – | > 100 | – | > 100 | – | > 100
COc1cccc(/C=C/c2nc3c(cnn3-c3ccccc3)c(=O)[nH]2)c1 | > 70 | > 100 | 17.8 | > 100 | > 100 | > 100 | > 100 | > 100 | 25.5 | > 100 | > 72.1 | > 100 | – | > 100 | > 34.9 | > 100 | > 100 | > 100 | > 25 | > 89.3
CCN(CC)c1c(-c2ccccc2)n[nH]c1C(=O)OC | 20.1 | 36.5 | – | – | 42.5 | > 100 | 31.2 | > 100 | 17.8 | 47 | 25.2 | 66.4 | 17.5 | 64.8 | 54.1 | > 100 | 35.3 | > 100 | 33.9 | > 100
